Measurements taken from ChEMBL document CHEMBL1201862, “PubChem BioAssay data set” (2004).
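Step 1: Grow cells in 96-well plates. Step 2: Expose to compound for 48 hours at 5 concentrations. Step 3: Interpolate endpoints linearly; if unreached, use highest concentration. At the GI50, growth is halved.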 Active and inactive are the calls of the source. No stated cut-off is given here; in the data, active = GI50 up to about 1.1 µM and inactive = higher.

Key:
Assay in all cases: NCI anticancer screen, dose series, 48 h
SK-MEL-28 = system: SK-MEL-28
UACC-257 = system: UACC-257
HT-29 = system: HT-29
SF-268 = system: SF-268
HOP-92 = system: HOP-92
SK-OV-3 = system: SK-OV-3
HOP-62 = system: HOP-62
SW-620 = system: SW-620
HCT-116 = system: HCT-116
RPMI-8226 = system: RPMI-8226
A549 = system: A549
TK-10 = system: TK-10
UO-31 = system: UO-31
OVCAR-8 = system: OVCAR-8
U-251 = system: U-251
LOX IMVI = system: LOX IMVI
NCI-H460 = system: NCI-H460

Measured: GI50

Cc1cc2c3ccccc3n(C)c2c2c1C(=O)c1ccccc1C2=O
inactive: SK-MEL-28 18.6 µM | UACC-257 20 µM | HT-29 24.9 µM | SF-268 25 µM | HOP-92 13.5 µM | SK-OV-3 22.2 µM | HOP-62 20.4 µM | SW-620 25 µM | HCT-116 14.8 µM | RPMI-8226 6.3 µM | A549 21.3 µM | TK-10 32.5 µM | UO-31 10.5 µM | OVCAR-8 19.2 µM

O=C(Nc1cc(C(F)(F)F)ccc1Cl)C(=O)C(C(=O)c1ccc2ccccc2c1)C1OC(=O)c2ccccc21 (centres undefined)
inactive: SK-MEL-28 5.13 µM | UACC-257 10 µM | HT-29 13.8 µM | SF-268 4.13 µM | U-251 2 µM | HOP-92 11.8 µM | SK-OV-3 31.3 µM | HOP-62 6.01 µM | SW-620 6.35 µM | HCT-116 4.8 µM | RPMI-8226 4.25 µM | A549 9.57 µM | TK-10 20.7 µM | UO-31 12.4 µM | OVCAR-8 5.09 µM | LOX IMVI 6.32 µM | NCI-H460 3.79 µM

CC(C)(C)C1(O)Cc2ccccc2C(=O)O1 (centres undefined)
inactive: SK-MEL-28 > 100 µM | UACC-257 > 100 µM | HT-29 > 100 µM | SF-268 > 100 µM | U-251 > 100 µM | HOP-92 > 100 µM | SK-OV-3 > 100 µM | HOP-62 > 100 µM | SW-620 > 100 µM | HCT-116 > 100 µM | A549 > 100 µM | TK-10 > 100 µM | UO-31 > 100 µM | OVCAR-8 > 100 µM | LOX IMVI > 100 µM | NCI-H460 > 100 µM

CCOC(=O)Cc1csc(Nc2ccc(OCC)cc2)n1
inactive: SK-MEL-28 > 100 µM | UACC-257 > 100 µM | HT-29 > 100 µM | SF-268 > 100 µM | U-251 > 100 µM | HOP-92 47.4 µM | HOP-62 > 100 µM | SW-620 > 100 µM | HCT-116 > 100 µM | RPMI-8226 > 100 µM | A549 > 100 µM | TK-10 > 100 µM | UO-31 > 100 µM | OVCAR-8 > 100 µM | NCI-H460 > 100 µM

O=C1CC2C(=O)N(Cc3ccccc3)C1C=C2S(=O)(=O)c1ccccc1 (centres undefined)
inactive: SK-MEL-28 > 100 µM | UACC-257 > 100 µM | HT-29 > 100 µM | SF-268 > 100 µM | U-251 > 100 µM | HOP-92 > 100 µM | SK-OV-3 > 100 µM | HOP-62 > 100 µM | SW-620 > 100 µM | HCT-116 > 100 µM | A549 > 100 µM | TK-10 > 100 µM | UO-31 > 100 µM | OVCAR-8 > 100 µM | LOX IMVI > 100 µM | NCI-H460 > 100 µM

N#CCc1nnc(N)o1
inactive: SK-MEL-28 > 100 µM | UACC-257 > 100 µM | SF-268 > 100 µM | U-251 > 100 µM | HOP-92 > 100 µM | SK-OV-3 > 100 µM | SW-620 > 100 µM | HCT-116 > 100 µM | RPMI-8226 > 100 µM | A549 > 100 µM | TK-10 > 100 µM | UO-31 > 100 µM | LOX IMVI > 100 µM

CC1(C)CCc2cc3c(cc2O1)OCC1c2cc4c(cc2OC31)OCO4 (centres undefined)
inactive: UACC-257 28 µM | HT-29 > 100 µM | SF-268 > 100 µM | U-251 > 100 µM | HOP-92 > 100 µM | SK-OV-3 > 100 µM | HOP-62 > 100 µM | SW-620 > 100 µM | HCT-116 > 100 µM | RPMI-8226 > 100 µM | A549 > 100 µM | TK-10 99.8 µM | UO-31 > 100 µM | OVCAR-8 > 100 µM | LOX IMVI > 100 µM | NCI-H460 54.5 µM

Cc1cccc(C)c1NC(=O)CCCC(=O)C1/C(=N/NC(=O)CC#N)CCC/C1=N\NC(=O)CC#N (centres undefined)
inactive: SK-MEL-28 > 100 µM | UACC-257 > 100 µM | HT-29 > 100 µM | SF-268 > 100 µM | U-251 > 100 µM | HOP-92 48.8 µM | SK-OV-3 > 100 µM | HOP-62 > 100 µM | SW-620 > 100 µM | HCT-116 > 100 µM | RPMI-8226 > 100 µM | A549 > 100 µM | TK-10 > 100 µM | UO-31 > 100 µM | OVCAR-8 > 100 µM | NCI-H460 > 100 µM

CCCCCCCc1cc(OC(=O)c2c(C)cc(OC)cc2O)cc(O)c1C(=O)O
inactive: SK-MEL-28 20.1 µM | UACC-257 30.4 µM | HT-29 32.5 µM | SF-268 20.2 µM | U-251 17.9 µM | HOP-92 26 µM | SK-OV-3 24.5 µM | HOP-62 18.5 µM | SW-620 26.2 µM | RPMI-8226 22.6 µM | A549 29.9 µM | TK-10 28.7 µM | UO-31 16.9 µM | OVCAR-8 27.1 µM | LOX IMVI 21.3 µM | NCI-H460 19.3 µM
